The numbers were not newly measured in patent US20050281896A1, “Nutritional composition for increasing creatine uptake in skeletal muscle” (priority 2004, published 2005), which cites them from elsewhere.

Data set [1] addresses angiotensin converting enzyme (ACE) (Homo sapiens, UniProt P12821).
The conditions of data set [2]: in vivo.

Chain of angiotensin converting enzyme (ACE) (P12821 30-1306, species assumed): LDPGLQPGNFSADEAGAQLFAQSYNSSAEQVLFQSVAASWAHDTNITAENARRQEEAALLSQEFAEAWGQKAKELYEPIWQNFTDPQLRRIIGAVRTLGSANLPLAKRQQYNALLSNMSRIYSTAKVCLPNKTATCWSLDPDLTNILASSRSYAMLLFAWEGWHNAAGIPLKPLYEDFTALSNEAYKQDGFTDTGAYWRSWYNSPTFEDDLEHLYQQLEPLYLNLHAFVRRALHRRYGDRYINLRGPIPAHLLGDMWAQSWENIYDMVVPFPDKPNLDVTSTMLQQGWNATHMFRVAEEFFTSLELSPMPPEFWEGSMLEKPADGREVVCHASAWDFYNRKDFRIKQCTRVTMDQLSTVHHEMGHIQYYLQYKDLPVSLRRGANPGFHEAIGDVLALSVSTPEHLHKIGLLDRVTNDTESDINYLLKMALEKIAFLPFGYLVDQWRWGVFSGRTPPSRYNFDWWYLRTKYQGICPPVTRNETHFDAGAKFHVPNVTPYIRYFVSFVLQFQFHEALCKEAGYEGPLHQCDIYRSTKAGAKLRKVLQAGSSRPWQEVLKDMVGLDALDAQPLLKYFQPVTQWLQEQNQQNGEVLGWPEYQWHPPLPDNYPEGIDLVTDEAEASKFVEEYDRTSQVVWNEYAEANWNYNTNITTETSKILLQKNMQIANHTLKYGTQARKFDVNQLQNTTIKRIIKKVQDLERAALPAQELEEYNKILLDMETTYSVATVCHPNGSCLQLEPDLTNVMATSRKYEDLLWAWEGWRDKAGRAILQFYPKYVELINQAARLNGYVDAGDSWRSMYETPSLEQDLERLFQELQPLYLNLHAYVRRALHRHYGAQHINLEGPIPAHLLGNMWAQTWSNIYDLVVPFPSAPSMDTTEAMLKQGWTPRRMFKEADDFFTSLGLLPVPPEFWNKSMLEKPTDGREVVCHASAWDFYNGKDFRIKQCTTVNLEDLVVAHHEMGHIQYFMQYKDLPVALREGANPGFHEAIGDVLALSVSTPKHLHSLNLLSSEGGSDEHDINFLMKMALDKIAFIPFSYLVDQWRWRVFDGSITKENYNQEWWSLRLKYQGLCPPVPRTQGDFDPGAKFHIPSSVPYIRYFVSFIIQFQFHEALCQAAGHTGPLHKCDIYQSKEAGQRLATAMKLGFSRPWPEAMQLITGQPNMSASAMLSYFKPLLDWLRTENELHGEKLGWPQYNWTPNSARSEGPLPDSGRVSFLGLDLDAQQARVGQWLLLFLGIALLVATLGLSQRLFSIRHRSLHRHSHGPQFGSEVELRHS

Consider `O=C(/C=C/c1ccc(O)c(O)c1)c1ccc(O)cc1O` [butein, 3,4,2′,4′-tetrahydroxychalcone], for which, in data set [1], the “effect on angiotensin converting enzyme (ACE)” value is reported as “inhibition”. Also, the “effect on blood pressure” value in data set [2] was “hypotensive effects”.
Turning to `O=C(O)CCCC[C@@H]1CCSS1` (stereo in doubt) [alpha lipoic acid, 1,2-dithiolane-3-pentanoic acid], the “increase of the metabolic clearance rate of glucose” value (diabetics) was 50%. For the same compound, the “body's utilization of blood sugar” value (type II diabetics) was “significantly increase”.
